In US7533723B2, “Well bore treatment fluid” (Schlumberger Technology Corporation, priority 2003, dated 2009):
Values joined by “and” are separate entries in the source; they are usually repeats but may differ in a detail not shown here. Equal entries are not always repeated. Each block holds one molecule with its values, some of them ahead of it.

Tests used:
[1] = Well-mixed bottle tests: dilution of treatment fluid with brine or oil; assay type: physicochemical; conditions: T=25° C.
Excerpt: In this case, the DPM solvent is 100% miscible with oil or brine.
Note that the oil and the treatment fluid are miscible.

[2] = From the text: For the case of abietic acid, calcium abietate (Dertocal), polymerised calcium abietate (MERIGRAL™) and the phenolic modified resins (RESENOL™ and GRANOLITE™), insoluble residues were removed by filtration and the numbers given in Table 1 relate to the soluble fraction after filtration.
[3] = Selective response in porous media, two feet long sandpacks (water zone / oil zone); conditions: for Brine permeability reduction corrected for treatment depth: water zone
Protocol: Candidate solvent-based treatment fluids were evaluated in porous media. […] Duplicate two feet long sandpacks were prepared using a specific blend of sand and silica flour.
Experiments were used to evaluate a treatment fluid containing 5 wt % calcium abietate pre-dissolved in a DPM/brine mixture.

[4] = remark: listed apart in the source
Protocol: Sandpack experiments were performed to evaluate the recovery of oil permeability after brine-induced precipitation.
The permeability ratio K(oil)/initial K(brine) is shown on the vertical y axis and this is plotted against the brine saturation (vol %) in the core.
The dark curve plotted with diamonds relates to the experiment wherein the starting point is a 10-ft pack saturated with brine (Sw=1, brine permeability Kw=960 mD). Oil is then flushed through it until the steady state is reached. During this operation, the water saturation in the pack decreases as water is mobilized and removed by the flow of oil. The oil permeability (Ko) is determined regularly during the process. The ratio K(oil)/initial K(brine) is then calculated and plotted against the water saturation. The oil permeability at steady state is 1300 mD, which gives Ko/Kwi=1.35 at Sw=29.5%.
The lighter curve plotted with triangles relates to the experiment wherein the 10-ft pack is saturated with brine (Sw=1, brine permeability Kw=800 mD). Half of it is then treated with 5 wt % resinate (calcium abietate, Dertocal) dissolved in solvent (DPM). Brine is then backflowed through the pack until the steady state is reached. […] Then, oil is flushed through the pack until the steady state is reached (Ko=1061 mD). Again, the ratio K(oil)/initial K(brine) is calculated and plotted against the water saturation. […]

[5] = Brine follow-up treatments, series of 3 treatments in 2-ft sand pack; conditions: 10 wt % in DPM
Protocol: The selective response to injections of treatment fluid and brine was carried out in porous media.
An experiment was performed in a 2-ft sand pack at ambient temperature and Sw=1. The experiment consisted in a series of 3 pack treatments (using a process of treatment fluid injection followed by brine injection), followed by brine backflow between each of the three treatments. The fluid used was 10 wt % resinate (calcium abietate, Dertocal) dissolved in DPM.
The volume of the treated zone is ⅔ of the pore volume (⅓ treatment fluid+⅓ brine). As shown, permeability reduced with each treatment.

[6] = Berea sandstone permeability experiments; conditions: 10 wt % in DPM, brine postflush, 20 psi/ft
Protocol: An experiment was performed in a 1 foot 250 mD Berea sandstone core at Sw=1, using a process of treatment fluid injection followed by follow-up brine injection.
Treatment fluid used: 10 wt % resinate (Calcium abietate, Dertocal) in solvent (DPM). The volume of the treated zone was ⅔ of the pore volume (⅓ treatment fluid+⅓ brine).
Brine permeability before treatment: 250 mD.
Brine permeability in the treated zone was reduced by 70%. The biggest damage (precipitation) appeared near the wellbore (region 1) where the reduction was 73%.
The biggest damage appeared near the wellbore (regions 1) where the reduction was 60%.

[7] = Abietate in pure diesel, Berea sandstone water and oil zones; conditions: 30 wt % dissolved in diesel, 50° C.
Protocol: The plot of FIG. 9 deals with the performance in water zones at 50° C. (Berea sandstone, k 100-150 mD; brine: 5 wt % NH4Cl in DI water) of the oil-based system (no miscibility with water/brine). The system contained 30 wt % calcium abietate dissolved in diesel.
The damage in the water zone was a function of the oil saturation prior to treatment. […] Since the brine and diesel-based treatment fluid are immiscible, it is unlikely that the precipitation of waxy solids accounts for the damage observed. Whilst it is possible that some minor precipitation may occur at interfaces, we suspect a viscous oil or viscous interface effect may be playing a role in reducing kbrine after backflow to steady-state.

Molecule: calcium neo-tridecanoate [Ca neo-Tridecanoate (dry)]
- Behaviour on dilution with brine: [brine] at precipitation ([1]; 10 wt % dissolved in pure DPM): [brine] = 70 vol %

Molecule: calcium neo-decanoate [Ca neo-Decanoate (dry^B)]
- Behaviour on dilution with brine: [brine] at precipitation ([1]; 10 wt % dissolved in pure DPM): [brine] = 67 vol %

- Solubility, Brine wt % [2]: very
- Solubility, Oil wt % [2]: ≧50.0^(7) wt %
- Solubility, Solvent wt % (solvent chemistry) [2]: ≧50.0 (DPM^(3)) wt %
Molecule: CC12CCC(CC1=O)C2(C)C (stereo not drawn) [Camphor, camphor]

Molecule: CC(C)C1=CC2=CCC3C(C)(C(=O)O)CCCC3(C)C2CC1 (stereo not drawn) [Ca Abietate, Calcium abietate]
- Solubility, Brine wt % [2]: 0.01 wt %
- Behaviour on dilution with brine: [brine] at precipitation ([1]; 5 wt % dissolved in pure DPM): [brine] = 23 vol %
- Brine permeability reduction corrected for treatment depth ([3]; 5 wt % pre-dissolved in DPM/brine mixture): 54%
- Brine permeability reduction corrected for treatment depth ([3]; 20 wt % in DPM, 20 psi/ft, 25° C.): 65% and 69%
- Effect on permeability to oil ([3]; not told): no effect on permeability to oil
- Brine permeability reduction ([4]; 5 wt % in DPM, half of 10-ft pack treated, brine backflow to steady state): 25%
- Oil permeability Ko at steady state after oil flush ([4]; not told): 1061 mD
- % Reduction (cumulative) ([5]; after treatment I): 51%
- % Reduction (cumulative) ([5]; after treatment II): 72%
- % Reduction (cumulative) ([5]; after treatment III): 88%
- Brine permeability reduction in the treated zone ([6]; T=60° C.): 33.5%
- Brine permeability reduction near the wellbore (regions 1) ([6]; T=60° C.): 60%
- Brine permeability reduction in the treated zone ([6]; ambient temperature): 70%
- Brine permeability reduction near the wellbore (region 1) ([6]; ambient temperature): 73%
- % retained koil in oil zones [7]: 85-100%
- kbrine reduction in water zones ([7]; So(pre-treatment) range 0-25%, brine 5 wt % NH4Cl): ≥ 70%

- Solubility, Brine wt % [2]: 0.01 wt %
- Solubility, Solvent wt % (solvent chemistry) [2]: ≧30 (DPM^(3)), ≧30 (EB^(4)) wt %
- Behaviour on dilution with brine: [brine] at precipitation ([1]; 5 wt % dissolved in pure DPM): [brine] = 33 vol %
Molecule: CC(C)C1=CC2=CCC3[C@](C)(CCC[C@@]3(C)C(=O)O)C2CC1 (stereo partly drawn) [Abietic Acid, Abietic acid]
